{"source": "patent US20240197828A1", "about": "“Chimeric molecule to treat sepsis and other inflammatory conditions” (THE FEINSTEIN INSTITUTES FOR MEDICAL RESEARCH, priority 2022, published 2024)", "molecular_target": "T1, αvβ3-integrin (Mus musculus, UniProt O54890+P43406)", "T1 construct": "purchased R&D Systems 7889-AV-050", "T1 sequence (P43406 31-988 limits assumed)": "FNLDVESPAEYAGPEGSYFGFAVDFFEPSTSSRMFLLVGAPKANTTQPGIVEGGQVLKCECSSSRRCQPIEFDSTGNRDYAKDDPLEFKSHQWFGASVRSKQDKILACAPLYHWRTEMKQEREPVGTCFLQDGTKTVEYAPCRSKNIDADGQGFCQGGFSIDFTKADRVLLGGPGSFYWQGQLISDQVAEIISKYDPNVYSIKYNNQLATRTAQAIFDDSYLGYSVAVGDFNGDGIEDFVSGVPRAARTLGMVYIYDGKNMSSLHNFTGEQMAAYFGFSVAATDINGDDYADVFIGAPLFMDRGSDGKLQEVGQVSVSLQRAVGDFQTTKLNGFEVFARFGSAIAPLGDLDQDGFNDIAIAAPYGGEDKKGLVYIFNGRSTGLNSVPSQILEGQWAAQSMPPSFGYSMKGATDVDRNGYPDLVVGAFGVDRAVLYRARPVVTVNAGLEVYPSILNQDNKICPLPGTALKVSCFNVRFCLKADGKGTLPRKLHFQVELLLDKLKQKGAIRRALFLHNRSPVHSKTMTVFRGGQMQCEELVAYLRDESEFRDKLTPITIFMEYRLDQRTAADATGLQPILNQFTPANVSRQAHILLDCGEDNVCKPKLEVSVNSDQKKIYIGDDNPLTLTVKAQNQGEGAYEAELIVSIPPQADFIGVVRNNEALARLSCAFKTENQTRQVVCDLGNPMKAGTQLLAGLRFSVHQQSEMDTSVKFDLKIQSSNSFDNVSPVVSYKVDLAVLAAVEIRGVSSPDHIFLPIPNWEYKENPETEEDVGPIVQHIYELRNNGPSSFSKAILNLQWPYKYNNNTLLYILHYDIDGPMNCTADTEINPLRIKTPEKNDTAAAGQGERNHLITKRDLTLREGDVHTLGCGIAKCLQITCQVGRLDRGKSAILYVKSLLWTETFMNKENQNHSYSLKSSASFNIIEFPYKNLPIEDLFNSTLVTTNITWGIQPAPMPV", "T1 sequence (O54890 26-717 limits assumed)": "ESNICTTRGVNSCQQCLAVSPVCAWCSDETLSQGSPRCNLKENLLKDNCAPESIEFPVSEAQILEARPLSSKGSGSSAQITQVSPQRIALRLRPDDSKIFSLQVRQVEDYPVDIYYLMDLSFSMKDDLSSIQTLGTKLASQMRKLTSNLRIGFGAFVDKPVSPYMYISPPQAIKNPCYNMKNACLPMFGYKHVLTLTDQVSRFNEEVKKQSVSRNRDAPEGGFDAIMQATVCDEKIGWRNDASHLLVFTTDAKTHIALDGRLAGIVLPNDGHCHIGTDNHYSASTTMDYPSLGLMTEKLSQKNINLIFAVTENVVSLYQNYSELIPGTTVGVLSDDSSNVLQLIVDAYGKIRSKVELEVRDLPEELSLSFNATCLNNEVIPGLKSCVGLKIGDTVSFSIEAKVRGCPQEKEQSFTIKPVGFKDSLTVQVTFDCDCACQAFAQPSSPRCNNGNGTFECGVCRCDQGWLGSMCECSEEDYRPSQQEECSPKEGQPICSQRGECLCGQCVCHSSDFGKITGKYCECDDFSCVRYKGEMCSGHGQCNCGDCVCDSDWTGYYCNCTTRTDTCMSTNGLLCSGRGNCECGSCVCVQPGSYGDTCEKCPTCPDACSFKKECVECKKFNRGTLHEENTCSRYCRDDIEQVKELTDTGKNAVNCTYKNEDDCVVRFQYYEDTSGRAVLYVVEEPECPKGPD", "experiment": "Surface plasmon resonance binding to αvβ3-integrin", "details": "Example 2, Biacore; integrin analyte 31.25 to 125 nM; read-out: KD, binding to αvβ3-integrin receptor", "text": "For Biacore experiments, recombinant murine (rm) CIRP was purchased from Cubasio Technology LLC (Cat #. CSB-EP613483He0), rmMFG-E8 was purchased from R&D Systems (Cat #2767-MF-050), and auß3-integrin was purchased from R&D Systems (Cat #7889-AV-050). For in vitro studies, recombinant human (rh)- and rmMFG-E8 and rmCIRP was produced by our lab as previously described (4). […] The known AA sequence of DD-2 (157 amino acids long) of murine MFG-E8 was split into ˜15 AA long sequences with a 5 AA long overlap. This portion of the peptide was designed to bind to eCIRP. The 15 AA sequences were then all tagged with three AA long, Arg-Gly-Asp (RGD), designed to bind to the integrin receptor. […] All peptides were screened in vitro for the ability to attenuate eCIRP-induced TNFα production. […]\nTo examine the direct interaction between rmCIRP and rmMFG-E8, surface plasmon resonance (SPR), OpenSPR (Nicoya), was performed between rmCIRP and rmMFG-E8. rmCIRP was immobilized on carboxyl sensor and rmMFG-E8 was injected as an analyte in concentrations of 15.7 nM to 250 nM. […] To evaluate binding, the analyte was injected into flow cell-1 and flow cell-2 and increasing concentrations and real-time interaction data were analyzed by TraceDrawer (Nicoya). […]", "note": "Residues, ends and D or L forms follow the SMILES beside them."}
{"smiles": "CC(C)C[C@H](NC(=O)[C@H](CC(N)=O)NC(=O)[C@H](Cc1c[nH]c2ccccc12)NC(=O)[C@@H](NC(=O)[C@H](CCCCN)NC(=O)[C@H](Cc1ccc(O)cc1)NC(=O)[C@H](CO)NC(=O)[C@H](CO)NC(=O)[C@H](CO)NC(=O)[C@H](CC(=O)O)NC(=O)CNC(=O)[C@@H](N)CCCNC(=N)N)[C@@H](C)O)C(=O)N[C@@H](CCCNC(=N)N)C(=O)N[C@@H](C)C(=O)N[C@@H](Cc1ccccc1)C(=O)NCC(=O)N[C@@H](Cc1c[nH]c2ccccc12)C(=O)N[C@@H](Cc1ccc(O)cc1)C(=O)O", "note": "[MOP3, RGDSSSYKTWNLRAFGWY] (H-RGDSSSYKTWNLRAFGWY-OH; N-terminus and C-terminus assumed)", "values": [{"measurement": "Kd", "result": 776, "unit": "nM"}]}
